Six compounds from ChEMBL document CHEMBL1255295, “Convergent in vivo and in vitro selection of ceftazidime resistance mutations at position 167 of CTX-M-3 beta-lactamase in hypermutable Escherichia coli strains” (2008) can be followed below.

In brackets after ≈: the same amount, converted by molar mass.

Assay [1] relates to Escherichia coli. Put plainly: Antimicrobial activity against Escherichia coli EPI300 harboring pCC1 carrying beta-lactamase CTX-M-3 gene by agar dilution method. Type of assay: functional. On the technique in general: Agar dilution tests growth on a series of plates holding different concentrations.
The subject of assay [2] is Escherichia coli. The assay is described as follows: Antimicrobial activity against ceftazidime-resistant Escherichia coli Irk2320 harboring beta-lactamase CTX-M-42 Pro167Thr mutant gene by agar dilution method. Type of assay: functional.
The test system of assay [3] is Escherichia coli. Put plainly: Antimicrobial activity against Escherichia coli EPI300 transformant harboring pCC1 by agar dilution method. Type of assay: functional.
The test system of assay [4] is Escherichia coli. The assay is described as follows: Antimicrobial activity against Escherichia coli AB14156 harboring beta-lactamase CTX-M-42 Pro167Thr mutant gene by agar dilution method. Type of assay: functional.
Assay [5] concerns Escherichia coli. The assay is described as follows: Antimicrobial activity against ceftazidime-resistant Escherichia coli Irk2322 harboring beta-lactamase CTX-M-42 Pro167Thr mutant gene by agar dilution method. Type of assay: functional.
Assay [6] concerns Escherichia coli. Put plainly: Antimicrobial activity against Escherichia coli Irk1224 harboring beta-lactamase CTX-M-3 by agar dilution method. The class given is functional.
Assay [7] deals with Escherichia coli. The assay is described as follows: Antimicrobial activity against Escherichia coli EPI300 harboring pCC1 carrying beta-lactamase CTX-M-42 Pro167Thr mutant gene by agar dilution method. Type of assay: functional.
Assay [8] has as its system Escherichia coli. Put plainly: Antimicrobial activity against Escherichia coli EPI300 harboring plasmid pCC1 by agar dilution method in presence of beta-lactamase inhibitor clavulanic acid.
In assay [9] the test system is Escherichia coli. Put plainly: Antimicrobial activity against ceftazidime-resistant Escherichia coli Irk2322 harboring beta-lactamase CTX-M-42 Pro167Thr mutant gene by agar dilution method in presence of beta-lactamase inhibitor clavulanic acid.
The test system of assay [10] is Escherichia coli. The assay is described as follows: Antimicrobial activity against Escherichia coli EPI300 harboring pCC1 carrying beta-lactamase CTX-M-42 Pro167Thr mutant gene by agar dilution method in presence of beta-lactamase inhibitor clavulanic acid.
The test system of assay [11] is Escherichia coli. Put plainly: Antimicrobial activity against Escherichia coli AB14156 harboring beta-lactamase CTX-M-42 Pro167Thr mutant gene by agar dilution method in presence of beta-lactamase inhibitor clavulanic acid.
Assay [12] deals with Escherichia coli. Put plainly: Antimicrobial activity against Escherichia coli Irk1224 harboring beta-lactamase CTX-M-3 by agar dilution method in presence of beta-lactamase inhibitor clavulanic acid.
Assay [13] deals with Escherichia coli. Put plainly: Antimicrobial activity against ceftazidime-resistant Escherichia coli Irk2320 harboring beta-lactamase CTX-M-42 Pro167Thr mutant gene by agar dilution method in presence of beta-lactamase inhibitor clavulanic acid.
Assay [14] concerns Escherichia coli. The assay is described as follows: Antimicrobial activity against Escherichia coli EPI300 harboring pCC1 carrying beta-lactamase CTX-M-3 by agar dilution method in presence of beta-lactamase inhibitor clavulanic acid.
The subject of assay [15] is Escherichia coli. The assay is described as follows: Antimicrobial activity against Escherichia coli EPI300 harboring GM2995 pCC1 carrying beta-lactamase CTX-M-3 gene by agar dilution method. Type of assay: functional.
For assay [16], the system named is Escherichia coli. The assay is described as follows: Antimicrobial activity against Escherichia coli EPI300 Irk1224 type 1 mutant harboring beta-lactamase CTX-M-3 gene by agar dilution method. The class given is functional.
Assay [17] deals with Escherichia coli. Put plainly: Antimicrobial activity against Escherichia coli GM2995 harboring plasmid pCC1 carrying beta-lactamase CTX-M-3 gene by agar dilution method. Type of assay: functional.
Assay [18] has as its system Escherichia coli. Put plainly: Antimicrobial activity against Escherichia coli Irk1224 type 3 mutant harboring beta-lactamase CTX-M-3 Lys136 mutant gene by agar dilution method. The class given is functional.
In assay [19] the test system is Escherichia coli. Put plainly: Antimicrobial activity against Escherichia coli EPI300 harboring GM2995 pCC1-1224 carrying CTX-M-3 beta-lactamase gene from by agar dilution method. The class given is functional.
Assay [20] relates to Escherichia coli. The assay is described as follows: Antimicrobial activity against Escherichia coli GM2995 harboring plasmid pCC1 carrying beta-lactamase CTX-M-3 Ser167 mutant gene by agar dilution method.
For assay [21], the system named is Escherichia coli. The assay is described as follows: Antimicrobial activity against Escherichia coli GM2995 harboring plasmid pCC1 carrying beta-lactamase CTX-M-3 from by agar dilution method. The class given is functional.
Assay [22] concerns Escherichia coli. Put plainly: Antimicrobial activity against Escherichia coli EPI300 harboring GM2995 pCC1 carrying beta-lactamase CTX-M-3 Ser167 mutant gene by agar dilution method.
The test system of assay [23] is Escherichia coli. The assay is described as follows: Antimicrobial activity against Escherichia coli Irk1224 type 1 mutant harboring beta-lactamase CTX-M-3 by agar dilution method. The class given is functional.
The subject of assay [24] is Escherichia coli. The assay is described as follows: Antimicrobial activity against Escherichia coli Irk1224 type 2 mutant harboring beta-lactamase CTX-M-3 Ser167 mutant gene by agar dilution method. The class given is functional.
Assay [25] has as its system Escherichia coli. The assay is described as follows: Antimicrobial activity against Escherichia coli EPI300 Irk1224 type 2 mutant harboring beta-lactamase CTX-M-3 Ser167 mutant gene by agar dilution method.
Assay [26] deals with Escherichia coli. The assay is described as follows: Antimicrobial activity against Escherichia coli EPI300 Irk1224 type 3 mutant harboring CTX-M-3 beta-lactamase Lys136 mutant gene by agar dilution method.

`CO/N=C(\C(=O)N[C@@H]1C(=O)N2C(C(=O)[O-])=C(C[N+]3(C)CCCC3)CS[C@H]12)c1csc(N)n1`: the MIC (usually the smallest concentration in the dilution series that meets the test's criterion for growth inhibition) against Escherichia coli [1] was found to be 0.5 µg/mL (≈ 1.04 µM); with Escherichia coli [2], 1 µg/mL (≈ 2.08 µM); in the assay with Escherichia coli [3] it was 0.06 µg/mL (≈ 0.125 µM); against Escherichia coli [4], 1 µg/mL (≈ 2.08 µM); against Escherichia coli [5], 1 µg/mL (≈ 2.08 µM); in the assay with Escherichia coli [6], 32 µg/mL (≈ 66.6 µM). In the assay with Escherichia coli [7], this compound registered a minimum inhibitory concentration (MIC) of 0.25 µg/mL (≈ 0.52 µM).
For the compound `CC1(C)S[C@@H]2[C@H](NC(=O)[C@H](N)c3ccc(O)cc3)C(=O)N2[C@H]1C(=O)O` [AMOXICILLIN], the minimum inhibitory concentration (MIC) with Escherichia coli [1] worked out at 8 µg/mL (≈ 21.9 µM); in the assay on Escherichia coli [2], 16 µg/mL (≈ 43.8 µM); with Escherichia coli [8] it was 1 µg/mL; in the assay on Escherichia coli [9], 8 µg/mL; with Escherichia coli [10], 4 µg/mL; against Escherichia coli [3], 2 µg/mL (≈ 5.47 µM). For the same compound, the minimum inhibitory concentration (MIC) with Escherichia coli [11] stood at 8 µg/mL; against Escherichia coli [4], 16 µg/mL (≈ 43.8 µM); with Escherichia coli [12], 16 µg/mL; in the assay with Escherichia coli [5] it was 16 µg/mL (≈ 43.8 µM); against Escherichia coli [6], 32 µg/mL (≈ 87.6 µM); in the assay with Escherichia coli [7], 8 µg/mL (≈ 21.9 µM). The MIC was 8 µg/mL in the assay on Escherichia coli [13] and 4 µg/mL with Escherichia coli [14].
Turning to `CC1(C)S[C@@H]2[C@H](NC(=O)[C@H](N)c3ccccc3)C(=O)N2[C@H]1C(=O)O` [AMPICILLIN], the MIC with Escherichia coli [1], in the assay on Escherichia coli [2], with Escherichia coli [15], against Escherichia coli [16], in the assay with Escherichia coli [4] and against Escherichia coli [17] was at least 256 µg/mL throughout. The minimal inhibitory concentration (MIC) against Escherichia coli [18] was at least 256 µg/mL; in the assay on Escherichia coli [5], at least 256 µg/mL; in the assay with Escherichia coli [6] it was at least 256 µg/mL; with Escherichia coli [19], at least 256 µg/mL; with Escherichia coli [7] it was at least 256 µg/mL; with Escherichia coli [20] it was 128 µg/mL (≈ 366 µM). The MIC against Escherichia coli [21] was at least 256 µg/mL; in the assay on Escherichia coli [22], 128 µg/mL (≈ 366 µM); in the assay with Escherichia coli [23] it was at least 256 µg/mL; in the assay on Escherichia coli [24], at least 256 µg/mL; with Escherichia coli [25] it was 128 µg/mL (≈ 366 µM); against Escherichia coli [26] it was 32 µg/mL (≈ 91.6 µM).
`CO/N=C(\C(=O)N[C@@H]1C(=O)N2C(C(=O)O)=C(COC(C)=O)CS[C@H]12)c1csc(N)n1` [CEFOTAXIME]: the MIC was found to be 4 µg/mL in the assay on Escherichia coli [8]; 4 µg/mL with Escherichia coli [9]; 4 µg/mL with Escherichia coli [10]; 4 µg/mL in the assay with Escherichia coli [11]; 4 µg/mL (≈ 8.78 µM) against Escherichia coli [17]; 64 µg/mL (≈ 141 µM) in the assay on Escherichia coli [18]. The minimal inhibitory concentration (MIC) in the assay on Escherichia coli [12] is 4 µg/mL; in the assay with Escherichia coli [20] it was 1 µg/mL (≈ 2.2 µM); in the assay with Escherichia coli [21], at least 256 µg/mL; in the assay with Escherichia coli [13], 4 µg/mL; against Escherichia coli [22], 1 µg/mL (≈ 2.2 µM); in the assay with Escherichia coli [14] it was 4 µg/mL. Further, the MIC in the assay on Escherichia coli [23] was at least 256 µg/mL; in the assay with Escherichia coli [24], 64 µg/mL (≈ 141 µM); in the assay on Escherichia coli [25], 1 µg/mL (≈ 2.2 µM); against Escherichia coli [26] it was 1 µg/mL (≈ 2.2 µM).
For `CC(C)(O/N=C(\C(=O)N[C@@H]1C(=O)N2C(C(=O)[O-])=C(C[n+]3ccccc3)CS[C@H]12)c1csc(N)n1)C(=O)O` [CEFTAZIDIME], the MIC was determined as 4 µg/mL with Escherichia coli [8]; 1 µg/mL (≈ 1.83 µM) against Escherichia coli [15]; 4 µg/mL in the assay on Escherichia coli [9]; 4 µg/mL in the assay on Escherichia coli [10]; 1 µg/mL (≈ 1.83 µM) in the assay on Escherichia coli [16]; 0.25 µg/mL (≈ 0.457 µM) with Escherichia coli [3]. For the same compound, the minimal inhibitory concentration (MIC) is 4 µg/mL in the assay on Escherichia coli [11]; 1 µg/mL (≈ 1.83 µM) against Escherichia coli [17]; at least 256 µg/mL with Escherichia coli [18]; 4 µg/mL in the assay on Escherichia coli [12]; 1 µg/mL (≈ 1.83 µM) against Escherichia coli [19]; 32 µg/mL (≈ 58.5 µM) against Escherichia coli [20]. In addition, the MIC in the assay on Escherichia coli [21] was 32 µg/mL (≈ 58.5 µM); with Escherichia coli [13] it was 4 µg/mL; in the assay with Escherichia coli [22] it was 16 µg/mL (≈ 29.3 µM); in the assay with Escherichia coli [14], 4 µg/mL; in the assay with Escherichia coli [23], at least 256 µg/mL; with Escherichia coli [24], at least 256 µg/mL. Further, the minimal inhibitory concentration (MIC) with Escherichia coli [25] amounted to 16 µg/mL (≈ 29.3 µM); in the assay on Escherichia coli [26] it was 8 µg/mL (≈ 14.6 µM).
Regarding `CO/N=C(\C(=O)N[C@@H]1C(=O)N2C(C(=O)O)=C(CSc3nc(=O)c(O)nn3C)CS[C@H]12)c1csc(N)n1` [CEFTRIAXONE], the MIC in the assay on Escherichia coli [1] is 4 µg/mL (≈ 7.21 µM); against Escherichia coli [2] it was 8 µg/mL (≈ 14.4 µM); against Escherichia coli [3], 0.06 µg/mL (≈ 0.108 µM); in the assay with Escherichia coli [4], 8 µg/mL (≈ 14.4 µM); with Escherichia coli [5], 8 µg/mL (≈ 14.4 µM); against Escherichia coli [6] it was at least 256 µg/mL. In the assay on Escherichia coli [7], this compound returned a minimal inhibitory concentration (MIC) of 1 µg/mL (≈ 1.8 µM).
